According to patent US20240158446A1, “CYCLIC COMPOUND HAVING SELECTIVE INHIBITORY ACTION ON KRAS OVER HRAS AND NRAS” (CHUGAI SEIYAKU KABUSHIKI KAISHA, priority 2021, published 2024):
pKd: −log10 of the molar value.

Tests used:
[1] = molecular target: GDP-bound KRAS wild-type protein (Homo sapiens, UniProt P01116); assay: Binding to KRAS by surface plasmon resonance (SPR), Single Cycle Kinetics; conditions: SPR, Single Cycle Kinetics, GDP-bound KRAS wild-type protein; read-out: KRAS KD
[2] = system: human lung cancer strain NCI-H441; assay: cells; conditions: NCI-H441, 96 h, read-out: NCI-H441 IC50 (nM), NCI-H441 cell proliferation, 4 days, CellTiter-Glo;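 further: cell proliferation inhibition after four days measured by CellTiter-Glo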
[3] = molecular target: GDP-bound HRAS wild-type protein (Homo sapiens, UniProt P01112); assay: Binding to HRAS by surface plasmon resonance (SPR), Single Cycle Kinetics; conditions: ratio of KD for GDP-bound HRAS wild-type protein to KD for KRAS, SPR
[4] = molecular target: GDP-bound NRAS wild-type protein (Homo sapiens, UniProt P01111); assay: Binding to NRAS by surface plasmon resonance (SPR), Single Cycle Kinetics; conditions: ratio of KD for GDP-bound NRAS wild-type protein to KD for KRAS, SPR
Chain of GDP-bound NRAS wild-type protein (P01111 whole entry): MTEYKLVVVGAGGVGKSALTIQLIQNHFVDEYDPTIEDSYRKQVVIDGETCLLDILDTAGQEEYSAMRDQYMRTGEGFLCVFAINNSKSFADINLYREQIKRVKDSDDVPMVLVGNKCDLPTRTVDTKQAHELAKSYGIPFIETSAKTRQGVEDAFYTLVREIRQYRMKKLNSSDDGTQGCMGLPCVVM

Chain of GDP-bound HRAS wild-type protein (P01112 whole entry): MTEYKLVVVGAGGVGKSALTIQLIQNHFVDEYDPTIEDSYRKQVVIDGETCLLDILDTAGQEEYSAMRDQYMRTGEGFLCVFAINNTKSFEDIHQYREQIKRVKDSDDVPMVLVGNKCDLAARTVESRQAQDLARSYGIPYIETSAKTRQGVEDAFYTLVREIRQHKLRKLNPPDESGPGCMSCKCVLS
Chain of GDP-bound KRAS wild-type protein (P01116 whole entry): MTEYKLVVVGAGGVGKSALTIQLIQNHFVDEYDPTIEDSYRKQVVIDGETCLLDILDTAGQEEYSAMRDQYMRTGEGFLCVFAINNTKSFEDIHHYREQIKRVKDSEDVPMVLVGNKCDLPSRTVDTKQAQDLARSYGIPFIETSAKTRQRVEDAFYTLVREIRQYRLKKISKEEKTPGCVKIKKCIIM

SMILES | pKd [1] | IC50 [2] [nM] | HRAS/KRAS (KD ratio) [3] | NRAS/KRAS (KD ratio) [4]
CCO[C@@H]1C[C@H]2C(=O)NC3(CC(C)(C)C3)C(=O)N(C)[C@@H](C3CCCC3)C(=O)N(C)[C@H](C(=O)N(C)CC)CC(=O)N(C)[C@@H](CC3CC3)C(=O)N[C@@H]([C@@H](C)CC)C(=O)N(C)CC(=O)N(C)[C@H]3C/C=C\CCN(C3=O)[C@@H](Cc3ccc(C(F)(F)F)cc3)C(=O)N(C)CC(=O)N[C@@H](CCc3ccc(C(F)(F)F)c(OC)c3)C(=O)N2C1 [PP1678] | 9.77 | 5.6 | B (a compound having 3 or more and less than 10 is denoted as B) | A (a compound having 10 or more and less than 20 is denoted as A)
CC[C@H](C)[C@@H]1NC(=O)[C@H](CC(F)(F)F)N(C)C(=O)C[C@@H](C(=O)N(C)C)N(C)C(=O)[C@H](C2CCCC2)N(C)C(=O)C2(CC(C)(C)C2)NC(=O)[C@@H]2C[C@H](C)CN2C(=O)[C@H](CCc2cc(F)c(C(F)(F)F)c(F)c2)NC(=O)CN(C)C(=O)[C@H](Cc2ccc(C(F)(F)F)cc2)N2CC/C=C\C[C@@H](C2=O)N(C)C(=O)CN(C)C1=O [PP1682] | 10.09 | 2.6 | A (a compound having 10 or more and less than 20 is denoted as A) | AA (a compound having 20 or more is denoted as AA)
CC[C@H](C)[C@@H]1NC(=O)[C@H](CC2CCC2)N(C)C(=O)C[C@@H](C(=O)N(C)C)N(C)C(=O)[C@H](C2CCCC2)N(C)C(=O)C2(CC(C)(C)C2)NC(=O)[C@@H]2C[C@H](C)CN2C(=O)[C@H](CCc2cc(F)c(C(F)(F)F)c(F)c2)NC(=O)CN(C)C(=O)[C@H](Cc2ccc(C(F)(F)F)cc2)N2CC/C=C\C[C@@H](C2=O)N(C)C(=O)CN(C)C1=O [PP1684] | 9.82 | 7.7 | A (a compound having 10 or more and less than 20 is denoted as A) | A (a compound having 10 or more and less than 20 is denoted as A)
CCCN(C)C(=O)[C@@H]1CC(=O)N(C)[C@@H](CC(F)F)C(=O)N[C@@H]([C@@H](C)CC)C(=O)N(C)CC(=O)N(C)[C@H]2C/C=C\CCN(C2=O)[C@@H](Cc2ccc(C(F)(F)F)cc2)C(=O)N(C)CC(=O)N[C@@H](CCc2cc(F)c(C(F)(F)F)c(F)c2)C(=O)N2C[C@H](F)C[C@H]2C(=O)NC2(CC(C)(C)C2)C(=O)N(C)[C@@H](C2CCCC2)C(=O)N1C [PP1687] | 10.12 | 2.7 | A (a compound having 10 or more and less than 20 is denoted as A) | A (a compound having 10 or more and less than 20 is denoted as A)
CC[C@H](C)[C@@H]1NC(=O)[C@H](CC(F)(F)F)N(C)C(=O)C[C@@H](C(=O)N(C)C)N(C)C(=O)[C@H](C2CCCC2)N(C)C(=O)C2(CC(C)(C)C2)NC(=O)[C@@H]2C[C@@H](F)CN2C(=O)[C@H](CCc2cc(F)c(C(F)(F)F)c(F)c2)NC(=O)CN(C)C(=O)[C@H](Cc2ccc(C(F)(F)F)cc2)N2CC/C=C\C[C@@H](C2=O)N(C)C(=O)CN(C)C1=O [PP1688] | 10.60 | 1.5 | A (a compound having 10 or more and less than 20 is denoted as A) | A (a compound having 10 or more and less than 20 is denoted as A)
CCC[C@H]1C(=O)N[C@@H]([C@@H](C)CC)C(=O)N(C)CC(=O)N(C)[C@H]2C/C=C\CCN(C2=O)[C@@H](Cc2ccc(C(F)(F)F)cc2)C(=O)N(C)CC(=O)N[C@@H](CCc2cc(F)c(C(F)(F)F)c(F)c2)C(=O)N2C[C@H](F)C[C@H]2C(=O)NC2(CC(C)(C)C2)C(=O)N(C)[C@@H](C2CCCC2)C(=O)N(C)[C@H](C(=O)N(C)C)CC(=O)N1C [PP1689] | 10.64 | 1.4 | B (a compound having 3 or more and less than 10 is denoted as B) | A (a compound having 10 or more and less than 20 is denoted as A)
C#CC[C@H]1C(=O)N[C@@H]([C@@H](C)CC)C(=O)N(C)CC(=O)N(C)[C@H]2C/C=C\CCN(C2=O)[C@@H](Cc2ccc(C(F)(F)F)cc2)C(=O)N(C)CC(=O)N[C@@H](CCc2cc(F)c(C(F)(F)F)c(F)c2)C(=O)N2C[C@H](F)C[C@H]2C(=O)NC2(CC(C)(C)C2)C(=O)N(C)[C@@H](C2CCCC2)C(=O)N(C)[C@H](C(=O)N(C)CCC)CC(=O)N1C [PP1692] | 9.96 | 4.3 | A (a compound having 10 or more and less than 20 is denoted as A) | AA (a compound having 20 or more is denoted as AA)

Further compounds by rising pKd [1], results first:

pKd [1] | IC50 [2] [nM] | SMILES | HRAS/KRAS (KD ratio) [3] | NRAS/KRAS (KD ratio) [4]
9.92 | 5 | CCC[C@H]1C(=O)N[C@@H]([C@@H](C)CC)C(=O)N(C)CC(=O)N(C)[C@H]2C/C=C\CCN(C2=O)[C@@H](Cc2ccc(C(F)(F)F)cc2)C(=O)N(C)CC(=O)N[C@@H](CCc2ccc(C(F)(F)F)c(OC)c2)C(=O)N2C[C@H](OCC)C[C@H]2C(=O)NC2(CC(C)(C)C2)C(=O)N(C)[C@@H](C2CCCC2)C(=O)N(C)[C@H](C(=O)N(C)CC)CC(=O)N1C [PP1676] | A (a compound having 10 or more and less than 20 is denoted as A) | A (a compound having 10 or more and less than 20 is denoted as A)
10.01 | 2.5 | CCC[C@H]1C(=O)N[C@@H]([C@@H](C)CC)C(=O)N(C)CC(=O)N(C)[C@H]2C/C=C\CCN(C2=O)[C@@H](Cc2ccc(C(F)(F)F)cc2)C(=O)N(C)CC(=O)N[C@@H](CCc2cc(F)c(C(F)(F)F)c(F)c2)C(=O)N2C[C@@H](C)C[C@H]2C(=O)NC2(CC(C)(C)C2)C(=O)N(C)[C@@H](C2CCCC2)C(=O)N(C)[C@H](C(=O)N(C)C)CC(=O)N1C [PP1683] | A (a compound having 10 or more and less than 20 is denoted as A) | A (a compound having 10 or more and less than 20 is denoted as A)
10.19 | 3.1 | CCO[C@@H]1C[C@H]2C(=O)NC3(CC(C)(C)C3)C(=O)N(C)[C@@H](C3CCCC3)C(=O)N(C)[C@H](C(=O)N(C)CC)CC(=O)N(C)[C@@H](COC)C(=O)N[C@@H]([C@@H](C)CC)C(=O)N(C)CC(=O)N(C)[C@H]3C/C=C\CCN(C3=O)[C@@H](Cc3ccc(C(F)(F)F)cc3)C(=O)N(C)CC(=O)N[C@@H](CCc3ccc(C(F)(F)F)c(OC)c3)C(=O)N2C1 [PP1679] | A (a compound having 10 or more and less than 20 is denoted as A) | A (a compound having 10 or more and less than 20 is denoted as A)
10.22 | 3.1 | C#CC[C@H]1C(=O)N[C@@H]([C@@H](C)CC)C(=O)N(C)CC(=O)N(C)[C@H]2C/C=C\CCN(C2=O)[C@@H](Cc2ccc(C(F)(F)F)cc2)C(=O)N(C)CC(=O)N[C@@H](CCc2cc(F)c(C(F)(F)F)c(F)c2)C(=O)N2C[C@H](F)C[C@H]2C(=O)NC2(CC(C)(C)C2)C(=O)N(C)[C@@H](C2CCCC2)C(=O)N(C)[C@H](C(=O)N(C)CC)CC(=O)N1C [PP1691] | A (a compound having 10 or more and less than 20 is denoted as A) | A (a compound having 10 or more and less than 20 is denoted as A)
10.38 | 3.4 | C#CC[C@H]1C(=O)N[C@@H]([C@@H](C)CC)C(=O)N(C)CC(=O)N(C)[C@H]2C/C=C\CCN(C2=O)[C@@H](Cc2ccc(C(F)(F)F)cc2)C(=O)N(C)CC(=O)N[C@@H](CCc2ccc(C(F)(F)F)c(OC)c2)C(=O)N2C[C@H](OCC)C[C@H]2C(=O)NC2(CC(C)(C)C2)C(=O)N(C)[C@@H](C2CCCC2)C(=O)N(C)[C@H](C(=O)N(C)C)CC(=O)N1C [PP1677] | A (a compound having 10 or more and less than 20 is denoted as A) | A (a compound having 10 or more and less than 20 is denoted as A)
